Assay results published in PubChem BioAssay AID1919007 (Molecular Pharmacology Branch, DTP, NCI, 2023).

System: A498 complex spheroids with HUVEC/MSC, growth
Experiment: Anticancer human tumor A498 cell line growth inhibition [AhR];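 also: seven day exposure starting three days after spheroid seeding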;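 as to viability, T/C: luminescence signal used as a surrogate for viable cells; luminescence viability scaled so 100% equals DMSO vehicle wells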
Conditions: for IC50: curve of first compound; for viability, T/C: stronger effect = lower value
Summary of the method: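 Spheroids combined tumor cells with HUVEC endothelial cells and human MSCs as stroma. AhR antagonists were paired with standard or investigational drugs, each dosed in half-log steps down from near clinical Cmax, or from 10 microM where Cmax was unknown.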

[1] = second compound 0.1 µM, first compound 0.0316 µM
[2] = second compound 0.1 µM, first compound 0.1 µM
[3] = second compound 0.1 µM, first compound 0.316 µM
[4] = second compound 0.1 µM, first compound 1 µM
[5] = second compound 0.1 µM, first compound 3.16 µM
[6] = second compound 0.1 µM, first compound 10 µM
[7] = second compound 0.316 µM, first compound 0.0316 µM
[8] = second compound 0.316 µM, first compound 0.1 µM
[9] = second compound 0.316 µM, first compound 0.316 µM
[10] = second compound 0.316 µM, first compound 1 µM
[11] = second compound 0.316 µM, first compound 3.16 µM
[12] = second compound 0.316 µM, first compound 10 µM
[13] = second compound 1 µM, first compound 0.0316 µM
[14] = second compound 1 µM, first compound 0.1 µM
[15] = second compound 1 µM, first compound 0.316 µM
[16] = second compound 1 µM, first compound 1 µM
[17] = second compound 1 µM, first compound 3.16 µM
[18] = second compound 1 µM, first compound 10 µM
[19] = second compound 3.16 µM, first compound 0.0316 µM
[20] = second compound 3.16 µM, first compound 0.1 µM
[21] = second compound 3.16 µM, first compound 0.316 µM
[22] = second compound 3.16 µM, first compound 1 µM
[23] = second compound 3.16 µM, first compound 3.16 µM
[24] = second compound 3.16 µM, first compound 10 µM
[25] = second compound 10 µM, first compound 0.0316 µM
[26] = second compound 10 µM, first compound 0.1 µM
[27] = second compound 10 µM, first compound 0.316 µM
[28] = second compound 10 µM, first compound 1 µM
[29] = second compound 10 µM, first compound 3.16 µM
[30] = second compound 10 µM, first compound 10 µM

| Structure (SMILES) | IC50 (second compound 0.1 µM) [nM] | IC50 (second compound 0.316 µM) [nM] | IC50 (second compound 1 µM) [nM] | IC50 (second compound 3.16 µM) [nM] | IC50 (second compound 10 µM) [nM] | viability, T/C [1] [%] | viability, T/C [2] [%] | viability, T/C [3] [%] | viability, T/C [4] [%] | viability, T/C [5] [%] | viability, T/C [6] [%] | viability, T/C [7] [%] | viability, T/C [8] [%] | viability, T/C [9] [%] | viability, T/C [10] [%] | viability, T/C [11] [%] | viability, T/C [12] [%] | viability, T/C [13] [%] | viability, T/C [14] [%] | viability, T/C [15] [%] | also measured |
| --- | --- | --- | --- | --- | --- | --- | --- | --- | --- | --- | --- | --- | --- | --- | --- | --- | --- | --- | --- | --- | --- |
| Nc1ccccc1NC(=O)c1ccc(CNC(=O)OCc2cccnc2)cc1 + Cc1cncc(-c2nc(NCCc3c[nH]c4ccccc34)c3ncn(C(C)C)c3n2)c1 | 1220 | 1260 | 1150 | 221 | < 31.6 | 82.6 | 79.7 | 70.5 | 57.8 | 23 | 2.08 | 83.6 | 84 | 84 | 53.7 | 24 | 1.77 | 83.8 | 78.5 | 72.8 | viability, T/C [16]: 56.1%; viability, T/C [17]: 18.1%; viability, T/C [18]: 2.18%; viability, T/C [19]: 50.4%; viability, T/C [20]: 49.9%; viability, T/C [21]: 51.5%; viability, T/C [22]: 41.2%; viability, T/C [23]: 16.9%; viability, T/C [24]: 1.1%; viability, T/C [25]: 3.86%; viability, T/C [26]: 3.69%; viability, T/C [27]: 2.11%; viability, T/C [28]: 1.29%; viability, T/C [29]: 0.5%; viability, T/C [30]: 0.86% |
| O=C(C=Cc1cccc(S(=O)(=O)Nc2ccccc2)c1)NO + Cc1cncc(-c2nc(NCCc3c[nH]c4ccccc34)c3ncn(C(C)C)c3n2)c1 | 1260 | 1380 | 1120 | 119 | < 31.6 | 92.1 | 90.3 | 63.2 | 54.4 | 37.4 | 15.1 | 94.5 | 88.1 | 73.5 | 53.8 | 36.7 | 13.8 | 83.9 | 85 | 64.7 | viability, T/C [16]: 52.4%; viability, T/C [17]: 33.5%; viability, T/C [18]: 14.9%; viability, T/C [19]: 48.5%; viability, T/C [20]: 51.9%; viability, T/C [21]: 50%; viability, T/C [22]: 42.5%; viability, T/C [23]: 31.2%; viability, T/C [24]: 11.8%; viability, T/C [25]: 4.64%; viability, T/C [26]: 4.39%; viability, T/C [27]: 4.66%; viability, T/C [28]: 3.81%; viability, T/C [29]: 2.39%; viability, T/C [30]: 2.67% |
| O=C(c1cc(Cc2n[nH]c(=O)c3ccccc23)ccc1F)N1CCN(C(=O)C2CC2)CC1 + Cc1cncc(-c2nc(NCCc3c[nH]c4ccccc34)c3ncn(C(C)C)c3n2)c1 | > 10000 | > 10000 | > 10000 | > 10000 | < 31.6 | 96.9 | 93.8 | 89.2 | 88.5 | 89.2 | 87.3 | 102 | 101 | 97.9 | 94.7 | 93.8 | 86 | 92.8 | 89.4 | 93.8 | viability, T/C [16]: 88.8%; viability, T/C [17]: 84%; viability, T/C [18]: 86%; viability, T/C [19]: 56.3%; viability, T/C [20]: 62.5%; viability, T/C [21]: 59.8%; viability, T/C [22]: 58.2%; viability, T/C [23]: 54.3%; viability, T/C [24]: 57.7%; viability, T/C [25]: 4.54%; viability, T/C [26]: 4.29%; viability, T/C [27]: 4.31%; viability, T/C [28]: 4.01%; viability, T/C [29]: 4.31%; viability, T/C [30]: 6.37% |
